Tests used:
[1] = test system: Erysiyphe graminis f.sp. hordei; test: Foliar spray for the control of barley powdery mildew; format: in vivo; settings: greenhouse foliar spray, barley plants; for pest or weed control at 300 ppm: Hordeum vulgare, read-out: Foliar Application (Percent Control) Barley Powdery Mildew
Procedure: Foliar Spray for the Control of Barley Powdery Mildew caused by Erysiyphe graminis f.sp. hordei
Technical grade material at defined ppm rates (w/v) in an acetone:water mixture (1:9) containing 0.1% Tween 20 (v/v) is sprayed to near run-off onto 7-days-old greenhouse-grown barley plants (var. “Robust”) at the cotyledon stage. Treated plants are inoculated within 24 hours by brushing mildew-infected plants over the treated plants. Inoculated plants are kept in the greenhouse for 6–8 days for disease development. Disease severity is examined and the % control is calculated as [% disease on untreated plants−% disease on treated plants]/% diseases in untreated plants. The results of these tests are shown in Table 2A below under the heading “Foliar Application—Barley Powdery Mildew”.

Botrytis cinerea [2] = test: microbe, parasite or virus in culture; format: cell-based
Pyricularia oryzae = test: whole plant or invertebrate; format: in vivo; settings: for pest or weed control at 300 ppm: Pyricularia oryzae, foliar, read-out: Foliar Application (Percent Control) Rice Blast
Phytophthora infestans [3] = test: microbe, parasite or virus in culture; format: cell-based
Pythium ultimum = test: microbe, parasite or virus in culture; format: cell-based
Rhizoctonia solani = test: microbe, parasite or virus in culture; format: cell-based
Fusarium nivale = test: microbe, parasite or virus in culture; format: cell-based
Helminthosporium sativum = test: Foliar spray for the control of barley blotch; format: in vivo; settings: greenhouse foliar spray, barley plants; for pest or weed control at 300 ppm: Helminthosporium, read-out: Foliar Application (Percent Control) Barley Blotch
Procedure: Foliar Spray for the Control of Barley Blotch Caused by Helminthosporium sativum
Technical grade material at defined ppm rates (w/v) in an acetone:water mixture (1:9) containing 0.1% Tween 20 (v/v) is sprayed to near run-off onto 7-days-old greenhouse-grown barley plants (var. “Robust”) at the cotyledon stage. Treated plants are inoculated within 24 hours from spraying with an aqueous suspension of approximately 15,000 conidia/ml of Helminthosporium sativum grown on artificial medium. Inoculated plants are placed into a high humidity chamber for 24 hr and then transferred to the greenhouse for 4–5 days for disease development. Disease severity is examined and the % control is calculated as [% disease on untreated plants−% disease on treated plants]/% disease on untreated plants.
The results of these tests are shown in Table 2A below under the heading “Foliar Application—Barley Blotch”.

Phytophthora infestans [4] = format: in vivo; settings: 300 ppm, greenhouse foliar spray, tomato plants
Botrytis cinerea [5] = test: Foliar spray for the control of geranium gray mold; format: in vivo; settings: 300 ppm, greenhouse foliar spray, geranium plants
Procedure: Foliar Spray for the Control of Geranium Gray Mold Caused by Botrytis cinerea
Technical grade material at defined ppm rates (w/v) in an acetone:water mixture (1:9) containing 0.1% Tween 20 (v/v) is sprayed to near run-off onto mature greenhouse-grown geranium plants (var. “Pinto White”) in the second leaf stage. Treated plants are inoculated within 24 hours with an aqueous suspension of approximately 100,000 conidia/ml of Botrytis cinerea grown on artificial medium. Inoculated plants are placed into a high humidity chamber for 5 days and then transferred to the greenhouse for one day for disease development. Disease severity is examined and the % control is calculated as [% disease on untreated plants−% disease on treated plants]/% disease on untreated plants. The results of these tests are shown in Table 2A below under the heading “Foliar Application—Geranium Gray Mold”.

Cucumber Powdery Mildew = test: Soil drench for the control of cucumber powdery mildew; format: in vivo; settings: 300 ppm, greenhouse soil drench
Procedure: (§1) Soil Drench for the Control of Barley or Cucumber Powdery Mildew
(§2) Technical grade material formulated as described for foliar sprays is dispensed at defined rates (ml/cm^3) into the soil in the pots for barley and cucumber in the stages as described for the foliar sprays. Treated plants are inoculated, within 24 hours with the respective powdery mildew species as described for the foliar spray tests. Inoculated plants are kept in the greenhouse for 6–8 days for disease development. Disease severity is examined and the % control is calculated as [% disease on untreated plants−% disease on treated plants]/% disease on untreated plants. The results of these tests are shown in Table 2B below under the heading “Drench Application—Barley Powdery Mildew” and “Drench Application—Cucumber Powdery Mildew”.

Uromyces appendiculatus = test: Foliar spray for the control of bean rust; format: in vivo; settings: 300 ppm, greenhouse foliar spray, Pinto bean plants
Procedure: Foliar Spray for the Control of Bean Rust Caused by Uromyces appendiculatus
Technical grade material at defined ppm rates (w/v) in an acetone:water mixture (1:9) containing 0.1% Tween 20 (v/v) is sprayed to near run-off onto 10-days-old greenhouse-grown Pinto bean plants (var. “Othello”) in the second leaf stage. Treated plants are inoculated within 24 hours with an aqueous suspension of approximately 20,000 uredospores of Uromyces appendiculatus harvested from rust-infected plants. Inoculated plants are placed into a high humidity chamber for 24 hr and then transferred to the greenhouse for two weeks for disease development. Disease severity is examined and the % control is calculated as [% disease on untreated plants−% disease on treated plants]/% disease on untreated plants. The results of these tests are shown in Table 2A below under the heading “Foliar Application—Bean Rust”.

Sclerotium rolfsii = format: cell-based
Barley Powdery Mildew = test: Soil drench for the control of barley powdery mildew; format: in vivo, Erysiyphe graminis f.sp. hordei; settings: 300 ppm, greenhouse soil drench
Procedure: as §1, §2

[6] = Botrytis cinerea, 48 h, read-out: Percent Control Botrytis cinerea
[7] = Phytophthora infestans, 48 h, read-out: Percent Control Phytophthora infestants
[8] = Globisporangium ultimum, 48 h, read-out: Percent Control Pythium ultimum
[9] = Rhizoctonia solani, 48 h, read-out: Percent Control Rhizoctonia solani
[10] = Microdochium nivale, 48 h, read-out: Percent Control Fusarium nivale

Compound | pest or weed control at 300 ppm [1] [%] | inhibition of growth at 10 ppm (Botrytis cinerea [2]; [6]) [%] | pest or weed control at 300 ppm (Pyricularia oryzae) [%] | inhibition of growth at 10 ppm (Phytophthora infestans [3]; [7]) [%] | inhibition of growth at 10 ppm (Pythium ultimum; [8]) [%] | inhibition of growth at 10 ppm (Rhizoctonia solani; [9]) [%] | inhibition of growth at 10 ppm (Fusarium nivale; [10]) [%] | pest or weed control at 300 ppm (Helminthosporium sativum) [%] | Foliar Application (Percent Control) Tomato Late Blight (Phytophthora infestans [4]) [%] | Foliar Application (Percent Control) Geranium Gray Mold (Botrytis cinerea [5]) [%] | Drench Application (Percent Control) Cucumber Powdery Mildew (Cucumber Powdery Mildew) [%] | Foliar Application (Percent Control) Bean Rust (Uromyces appendiculatus) [%] | Percent Control Sclerotium rolfsii (Sclerotium rolfsii) [%] | Drench Application (Percent Control) Barley Powdery Mildew (Barley Powdery Mildew) [%] | inhibition of growth at 100 ppm (Botrytis cinerea [2]; [6]) [%] | inhibition of growth at 100 ppm (Phytophthora infestans [3]; [7]) [%] | inhibition of growth at 100 ppm (Pythium ultimum; [8]) [%] | inhibition of growth at 100 ppm (Rhizoctonia solani; [9]) [%] | inhibition of growth at 100 ppm (Fusarium nivale; [10]) [%] | further results
CCC(=NNc1ccc(Oc2cccc(C(F)(F)F)c2)c(F)c1)[N+](=O)[O-] [Compound 12, 1-{3-fluoro-4-[3-(trifluoromethyl)phenoxy]phenyl}-2-(1-nitropropylidene)-hydrazine] | 80 | 18 | 0 | 0 | 3 | 68 | 20 | 0 | 0 | 0 | – | – | – | – | – | – | – | – | – | –
CC(C)OC(=O)NN(C(=O)C(F)(F)F)c1ccc(Oc2cccc(Cl)c2)nc1 [Compound 6] | – | – | – | – | – | – | – | – | 0 | 82 | 0 | 0 | 98 | 0 | – | – | – | – | – | Foliar Application (Percent Control) Barley Powdery Mildew ([1]; 300 ppm): 0%; Percent Control Botrytis cinerea (Botrytis cinerea [2]): 98%; Foliar Application (Percent Control) Rice Blast (Pyricularia oryzae; 300 ppm, greenhouse foliar spray, rice plants): 92%; Percent Control Phytophthora infestants (Phytophthora infestans [3]; in vitro, rate 100 ppm, 48 hours): 100%; Percent Control Pythium ultimum (Pythium ultimum): 25%; Percent Control Rhizoctonia solani (Rhizoctonia solani): 100%; Percent Control Fusarium nivale (Fusarium nivale): 71%; Foliar Application (Percent Control) Barley Blotch (Helminthosporium sativum; 300 ppm): 97%
CC(C)OC(=O)NN(C(=O)C(F)(F)F)c1ccc(Oc2cccc(C(F)(F)F)c2)cc1 [Compound 2, 1-methylethyl 2-(trifluoroacetyl)-2-[4-[3-(trifluoromethyl)phenoxy]phenyl]-hydrazine carboxylate] | 25 | – | 15 | – | – | – | – | 99 | – | – | 0 | 0 | 67 | 0 | 90 | 100 | 100 | 82 | 20 | –
CC(C)OC(=O)NNc1ccc(-c2cccc(C(F)(F)F)c2)c(F)c1 [Compound 8, isopropyl 2-[2-fluoro-3′-(trifluoromethyl)-1,1′-biphenyl-4-yl]hydrazine-carboxylate] | 0 | 63 | 70 | 18 | 26 | 58 | 22 | 98 | 0 | 90 | – | – | – | – | – | – | – | – | – | –
CC(C)OC(=O)NNc1ccc(Oc2cccc(C(F)(F)F)c2)cc1 [Compound 1, 1-methylethyl 2-[4-[3-(trifluoromethyl)phenoxy]phenyl]hydrazinecarboxylate] | 90 | – | 79 | – | – | – | – | 97 | 12 | 87 | 0 | 97 | 100 | 0 | 100 | 100 | 100 | 91 | 29 | –
CC(C)OC(=O)NN(C)c1ccc(Oc2cccc(C(F)(F)F)c2)cc1 [Compound 3, 1-methylethyl 2-methyl-2-[4-[3-(trifluoromethyl)phenoxy]phenyl]hydrazine carboxylate] | 62 | – | 10 | – | – | – | – | 0 | – | 87 | 0 | 0 | – | 0 | – | – | – | – | – | inhibition of growth at 50 ppm (Botrytis cinerea [2]; [6]): 100%; inhibition of growth at 50 ppm (Phytophthora infestans [3]; [7]): 79%; inhibition of growth at 50 ppm (Pythium ultimum; [8]): 100%; inhibition of growth at 50 ppm (Rhizoctonia solani; [9]): 63%; inhibition of growth at 50 ppm (Fusarium nivale; [10]): 82%
CC(=O)NNc1ccc(Oc2cccc(C(F)(F)F)c2)c(F)c1 [Compound 7, N′-{3-fluoro-4-[3-(trifluoromethyl)phenoxy]phenyl}acetohydrazide] | 80 | 30 | 0 | 0 | 8 | 80 | 8 | 80 | 0 | 80 | – | – | – | – | – | – | – | – | – | –
CC(C)OC(=O)N1CN(C)CN1c1ccc(Oc2cccc(C(F)(F)F)c2)c(F)c1 [Compound 10, 1-methylethyl 2-[3-fluoro-4-[3-(trifluoromethyl)phenoxy]phenyl]-4-methyl-1,2,4-triazolidine-1-carboxylate] | 100 | – | 0 | – | – | – | – | 90 | – | 0 | – | – | – | – | 0 | 0 | 0 | 79 | 0 | –
CC(C)OC(=O)N=Nc1ccc(Oc2cccc(C(F)(F)F)c2)cc1 [Compound 9, 1-methylethyl [4-[3-(trifluoromethyl)phenoxy]phenyl]diazene carboxylate] | 15 | – | 98 | – | – | – | – | 97 | – | – | 0 | 45 | 91 | 25 | 77 | 9 | 0 | 22 | 75 | –
